Values quoted from earlier work, collected in article PMC5962642, “Dynamic imaging of adaptive stress response pathway activation for prediction of drug induced liver injury” (Archives of Toxicology, 2018).

How the values were obtained:
[1] = ref livertox.nih.gov database; cited from earlier work
[2] = C-max obtained from FDA or literature; ref per compound (FDA, Dailymed, Xu, O’Brien, Khetani, Regenthal, Gustafsson, Dawson, Ogutu, Patel, Schmidt, Ravic, Keisu, Hu, Wagner); cited from earlier work
[3] = ref Chen et al. [2016], cited from earlier work; for DILI con. (DILI-concern labeling): FDA DILI labeling; for Hepa. (hepatotoxicity class): FDA labeling in eight classes of hepatotoxicity

NC(=O)c1ncn([C@@H]2O[C@H](CO)[C@@H](O)[C@H]2O)n1 [Ribavirin]
Metab (metabolic potential) [1]: YES | Cmax [2]: 2.61 µM | DILI con. (DILI-concern labeling) [3]: Amb.-DC

CC(C)OC(=O)C(C)(C)Oc1ccc(C(=O)c2ccc(Cl)cc2)cc1 [Fenofibrate]
Cmax [2]: 4.1 µM | Hepa. (hepatotoxicity class) [3]: 3

CCC1(c2ccccc2)C(=O)NCNC1=O [Primidone]
Metab (metabolic potential) [1]: YES | Cmax [2]: 4.67 µM | Hepa. (hepatotoxicity class) [3]: 1

O=c1n(CCCN2CCN(c3cccc(Cl)c3)CC2)nc2ccccn12 [Trazodone]
Metab (metabolic potential) [1]: YES | Cmax [2]: 5.06 µM | DILI con. (DILI-concern labeling) [3]: Less-DC | Hepa. (hepatotoxicity class) [3]: 5

COc1ccccc1Oc1c(NS(=O)(=O)c2ccc(C(C)(C)C)cc2)nc(-c2ncccn2)nc1OCCO [Bosentan]
Metab (metabolic potential) [1]: YES | DILI con. (DILI-concern labeling) [3]: Most-DC | Hepa. (hepatotoxicity class) [3]: 7

CNC[C@H](O)c1ccc(O)c(O)c1 [Epinephrine]
Cmax [2]: 0.002 µM | DILI con. (DILI-concern labeling) [3]: No-DC | Hepa. (hepatotoxicity class) [3]: 1

CC/C(=C(\c1ccccc1)c1ccc(OCCN(C)C)cc1)c1ccccc1 [Tamoxifen]
Metab (metabolic potential) [1]: YES

COc1ccc2c(c1)c(CC(=O)O)c(C)n2C(=O)c1ccc(Cl)cc1 [Indomethacin]
Cmax [2]: 5.59 µM

COCCc1ccc(OCC(O)CNC(C)C)cc1 (stereo not drawn) [Metoprolol]
Cmax [2]: 0.56 µM

Fc1ccc([C@@H]2CCNC[C@H]2COc2ccc3c(c2)OCO3)cc1 [Paroxetine]
Metab (metabolic potential) [1]: YES | DILI con. (DILI-concern labeling) [3]: Less-DC | Hepa. (hepatotoxicity class) [3]: 8

NC(=O)N1c2ccccc2C=Cc2ccccc21 [Carbamazepine]
Cmax [2]: 50.8 µM | DILI con. (DILI-concern labeling) [3]: Most-DC | Hepa. (hepatotoxicity class) [3]: 7

CCCNC(=O)NS(=O)(=O)c1ccc(Cl)cc1 [Chlorpropamide]
Cmax [2]: 130 µM | DILI con. (DILI-concern labeling) [3]: Less-DC | Hepa. (hepatotoxicity class) [3]: 2

CC1(C)S[C@@H]2[C@H](NC(=O)[C@H](N)c3ccc(O)cc3)C(=O)N2[C@H]1C(=O)O [Amoxicillin]
Cmax [2]: 22.3 µM | DILI con. (DILI-concern labeling) [3]: Less-DC | Hepa. (hepatotoxicity class) [3]: 5

CN(C)/N=N/c1[nH]cnc1C(N)=O [Dacarbazine]
Cmax [2]: 20.6 µM | DILI con. (DILI-concern labeling) [3]: Most-DC | Hepa. (hepatotoxicity class) [3]: 6

CC[C@H]1OC(=O)[C@H](C)[C@@H](O[C@H]2C[C@@](C)(OC)[C@@H](O)[C@H](C)O2)[C@H](C)[C@@H](O[C@@H]2O[C@H](C)C[C@H](N(C)C)[C@H]2O)[C@](C)(O)C[C@@H](C)C(=O)[C@H](C)[C@@H](O)[C@]1(C)O [Erythromycin]
Cmax [2]: 11 µM

CNCCCC12CCC(c3ccccc31)c1ccccc12 [Maprotiline]
Cmax [2]: 0.18 µM | DILI con. (DILI-concern labeling) [3]: Amb.-DC | Hepa. (hepatotoxicity class) [3]: 5

CS(=O)(=O)OCCCCOS(C)(=O)=O [Busulfan]
Cmax [2]: 0.277 µM | DILI con. (DILI-concern labeling) [3]: Most-DC | Hepa. (hepatotoxicity class) [3]: 8

CN(C)CCCN1c2ccccc2CCc2ccccc21 [Imipramine]
Metab (metabolic potential) [1]: YES | Cmax [2]: 0.29 µM

Cn1cc[nH]c1=S [Methimazole]
Cmax [2]: 2.62 µM

O=c1[nH]c(=O)n([C@@H]2O[C@H](CO)[C@@H](O)[C@@H]2F)cc1I [Fialuridine]
Cmax [2]: 1 µM | DILI con. (DILI-concern labeling) [3]: Most-DC | Hepa. (hepatotoxicity class) [3]: 8

CC1COc2c(N3CCN(C)CC3)c(F)cc3c(=O)c(C(=O)O)cn1c23 (stereo not drawn) [Ofloxacin]
Cmax [2]: 9.96 µM | Hepa. (hepatotoxicity class) [3]: 3

CN(Cc1cnc2nc(N)nc(N)c2n1)c1ccc(C(=O)N[C@@H](CCC(=O)O)C(=O)O)cc1 [Methotrexate]
Cmax [2]: 0.77 µM | DILI con. (DILI-concern labeling) [3]: Most-DC | Hepa. (hepatotoxicity class) [3]: 3

O=c1[nH]cnc2c1ncn2[C@H]1CC[C@@H](CO)O1 [Didanosine]
Cmax [2]: 9.83 µM | Hepa. (hepatotoxicity class) [3]: 8

COc1ccc([C@@H]2Sc3ccccc3N(CCN(C)C)C(=O)[C@@H]2OC(C)=O)cc1 [Diltiazem]
Cmax [2]: 0.356 µM

Clc1ccccc1C(c1ccccc1)(c1ccccc1)n1ccnc1 [Clotrimazole]
Cmax [2]: 0.087 µM | DILI con. (DILI-concern labeling) [3]: Less-DC | Hepa. (hepatotoxicity class) [3]: 3

CC(=O)Oc1cc(C(C)C)c(OCCN(C)C)cc1C [Moxisylyte]
Cmax [2]: 0.16 µM | Hepa. (hepatotoxicity class) [3]: 8

CN(C)c1nc(N(C)C)nc(N(C)C)n1 [Altretamine]
Cmax [2]: 3.76 µM | DILI con. (DILI-concern labeling) [3]: Amb.-DC

Nc1nc(O)c2ncn(COC(CO)CO)c2n1 [Ganciclovir]
Cmax [2]: 4.62 µM | Hepa. (hepatotoxicity class) [3]: 7

C#C[C@]1(O)CC[C@H]2[C@@H]3CCC4=Cc5oncc5C[C@]4(C)[C@H]3CC[C@@]21C [Danazol]
Cmax [2]: 0.109 µM | Hepa. (hepatotoxicity class) [3]: 8

CNCCC(Oc1ccc(C(F)(F)F)cc1)c1ccccc1 (stereo not drawn) [Fluoxetine]
Hepa. (hepatotoxicity class) [3]: 3

CS(=O)(=O)Nc1ccc([N+](=O)[O-])cc1Oc1ccccc1 [Nimesulide]
Metab (metabolic potential) [1]: YES | Cmax [2]: 21.1 µM

CC(C)NCC(O)c1ccc(O)c(O)c1 (stereo not drawn) [Isoproterenol]
Cmax [2]: 2.02 µM | DILI con. (DILI-concern labeling) [3]: No-DC | Hepa. (hepatotoxicity class) [3]: 1

CC(C)NCC(O)COc1cccc2ccccc12 (stereo not drawn) [Propranolol]
Metab (metabolic potential) [1]: YES

COC1=CC(=O)C[C@@H](C)[C@]12Oc1c(Cl)c(OC)cc(OC)c1C2=O [Griseofulvin]
Metab (metabolic potential) [1]: YES | Cmax [2]: 4.54 µM

CC[C@@H](CO)NCCN[C@@H](CC)CO [Ethambutol]
Cmax [2]: 24.5 µM | DILI con. (DILI-concern labeling) [3]: Most-DC | Hepa. (hepatotoxicity class) [3]: 8

O=C1CC2(CCCC2)CC(=O)N1CCCCN1CCN(c2ncccn2)CC1 [Buspirone]
Cmax [2]: 0.016 µM | DILI con. (DILI-concern labeling) [3]: Amb.-DC

C[C@H](CS)C(=O)N1CCC[C@H]1C(=O)O [Captopril]
Cmax [2]: 8.88 µM | Hepa. (hepatotoxicity class) [3]: 7

CN(C/C=C/C#CC(C)(C)C)Cc1cccc2ccccc12 [Terbinafine]
Cmax [2]: 4 µM | DILI con. (DILI-concern labeling) [3]: Most-DC | Hepa. (hepatotoxicity class) [3]: 8

CCN(CC)C(=S)SSC(=S)N(CC)CC [Disulfiram]
Cmax [2]: 5.4 µM

C1CCC(C(CC2CCCCN2)C2CCCCC2)CC1 (stereo not drawn) [Perhexiline]
DILI con. (DILI-concern labeling) [3]: Most-DC | Hepa. (hepatotoxicity class) [3]: 8

Cc1cccc(CN2CCN(C(c3ccccc3)c3ccc(Cl)cc3)CC2)c1 (stereo not drawn) [Meclizine]
DILI con. (DILI-concern labeling) [3]: No-DC | Hepa. (hepatotoxicity class) [3]: 1

OCCOCCN1CCN(C(c2ccccc2)c2ccc(Cl)cc2)CC1 (stereo not drawn) [Hydroxyzine]
Cmax [2]: 0.27 µM | DILI con. (DILI-concern labeling) [3]: No-DC | Hepa. (hepatotoxicity class) [3]: 1

CC(=O)CC(c1ccccc1)c1c(O)c2ccccc2oc1=O (stereo not drawn) [Warfarin]
Cmax [2]: 4.86 µM

CCCCNC(=O)NS(=O)(=O)c1ccc(C)cc1 [Tolbutamide]
Cmax [2]: 233 µM

O=C(c1ccccc1)c1ccc2n1CCC2C(=O)O (stereo not drawn) [Ketorolac]
Cmax [2]: 3.53 µM | DILI con. (DILI-concern labeling) [3]: Less-DC | Hepa. (hepatotoxicity class) [3]: 3

COC(=O)Nc1nc2ccc(C(=O)c3ccccc3)cc2[nH]1 [Mebendazole]
Cmax [2]: 0.13 µM | Hepa. (hepatotoxicity class) [3]: 3

O=C(N[C@H](CO)[C@H](O)c1ccc([N+](=O)[O-])cc1)C(Cl)Cl [Chloramphenicol]
Cmax [2]: 46.4 µM

C[C@H]1O[C@@H](O[C@H]2[C@@H](O)C[C@H](O[C@H]3[C@@H](O)C[C@H](O[C@H]4CC[C@@]5(C)[C@H](CC[C@@H]6[C@@H]5C[C@@H](O)[C@]5(C)[C@@H](C7=CC(=O)OC7)CC[C@]65O)C4)O[C@@H]3C)O[C@@H]2C)C[C@H](O)[C@@H]1O [Digoxin]
Cmax [2]: 0.003 µM | Hepa. (hepatotoxicity class) [3]: 1

CN(C)C(=N)N=C(N)N [Metformin]
Metab (metabolic potential) [1]: YES | DILI con. (DILI-concern labeling) [3]: Less-DC | Hepa. (hepatotoxicity class) [3]: 1

C[C@]12C=CC(=O)C=C1CC[C@@H]1[C@@H]2[C@@H](O)C[C@@]2(C)[C@H]1CC[C@]2(O)C(=O)CO [Prednisolone]
Cmax [2]: 0.68 µM | DILI con. (DILI-concern labeling) [3]: Less-DC | Hepa. (hepatotoxicity class) [3]: 3

Clc1ccccc1CN1CCc2sccc2C1 [Ticlopidine]
Cmax [2]: 8.07 µM

CCc1cccc2c3c([nH]c12)C(CC)(CC(=O)O)OCC3 (stereo not drawn) [Etodolac]
Cmax [2]: 68.5 µM | DILI con. (DILI-concern labeling) [3]: Most-DC | Hepa. (hepatotoxicity class) [3]: 8

CC(CCc1ccccc1)NCC(O)c1ccc(O)c(C(N)=O)c1 (stereo not drawn) [Labetalol]
Cmax [2]: 2.68 µM | DILI con. (DILI-concern labeling) [3]: Most-DC | Hepa. (hepatotoxicity class) [3]: 8

C=CC[C@@H]1/C=C(\C)C[C@H](C)C[C@H](OC)[C@H]2O[C@@](O)(C(=O)C(=O)N3CCCC[C@H]3C(=O)O[C@H](/C(C)=C/[C@@H]3CC[C@@H](O)[C@H](OC)C3)[C@H](C)[C@@H](O)CC1=O)[C@H](C)C[C@@H]2OC [Tacrolimus]
Metab (metabolic potential) [1]: YES | DILI con. (DILI-concern labeling) [3]: Less-DC | Hepa. (hepatotoxicity class) [3]: 5

CNC(=C[N+](=O)[O-])NCCSCc1ccc(CN(C)C)o1 [Ranitidine]
Cmax [2]: 1.79 µM | DILI con. (DILI-concern labeling) [3]: Less-DC | Hepa. (hepatotoxicity class) [3]: 5

Nc1nc2ncc(CNc3ccc(C(=O)N[C@@H](CCC(=O)O)C(=O)O)cc3)nc2c(=O)[nH]1 [Folic acid]
Cmax [2]: 0.043 µM | Hepa. (hepatotoxicity class) [3]: 1

CCOC(=O)CN[C@@H](C(=O)N1CC[C@H]1C(=O)NCc1ccc(/C(N)=N\O)cc1)C1CCCCC1 [Ximelagatran]
Cmax [2]: 0.3 µM

C[C@@H]1C[C@H]2[C@@H]3CCC4=CC(=O)C=C[C@]4(C)[C@@]3(F)[C@@H](O)C[C@]2(C)[C@@]1(O)C(=O)CO [Dexamethasone]
Cmax [2]: 0.224 µM | DILI con. (DILI-concern labeling) [3]: Amb.-DC | Hepa. (hepatotoxicity class) [3]: 3

CCCc1cc(=O)[nH]c(=S)[nH]1 [Propylthiouracil]
Cmax [2]: 9.1 µM | Hepa. (hepatotoxicity class) [3]: 8

CCC1=C(C)CN(C(=O)NCCc2ccc(S(=O)(=O)NC(=O)N[C@H]3CC[C@H](C)CC3)cc2)C1=O [Glimepiride]
Cmax [2]: 1.12 µM | DILI con. (DILI-concern labeling) [3]: Less-DC | Hepa. (hepatotoxicity class) [3]: 7
